Results as given in ChEMBL document CHEMBL1201862, “PubChem BioAssay data set” (2004).
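Method: 48-hour compound exposure of cells in 96-well plates, five concentrations, linear interpolation of endpoints. At the GI50, growth is halved.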 The source made the active and inactive calls. Cut-off read from the data, not from the text of the source: active = GI50 up to about 1.1 µM and inactive = higher.

Assays:
Test in all cases: inhibition of tumour cell growth, NCI panel, 48 h
786-0 = system: 786-0
BT-549 = system: BT-549
CAKI-1 = system: CAKI-1
CCRF-CEM = system: CCRF-CEM
COLO 205 = system: COLO 205
DU-145 = system: DU-145
EKVX = system: EKVX
HCC 2998 = system: HCC 2998
HCT-116 = system: HCT-116
HCT-15 = system: HCT-15
HL-60 = system: HL-60
HOP-92 = system: HOP-92
HT-29 = system: HT-29
M14 = system: M14
MCF7 = system: MCF7
NCI-H522 = system: NCI-H522
OVCAR-5 = system: OVCAR-5
SF-268 = system: SF-268
T47D = system: T47D
UACC-62 = system: UACC-62

SMILES | GI50 (786-0) | GI50 (BT-549) | GI50 (CAKI-1) | GI50 (CCRF-CEM) | GI50 (COLO 205) | GI50 (DU-145) | GI50 (EKVX) | GI50 (HCC 2998) | GI50 (HCT-116) | GI50 (HCT-15) [µM] | GI50 (HL-60) | GI50 (HOP-92) | GI50 (HT-29) | GI50 (M14) | GI50 (MCF7) | GI50 (NCI-H522) | GI50 (OVCAR-5) | GI50 (SF-268) | GI50 (T47D) | GI50 (UACC-62)
COc1cc2c(cc1OCCCCOc1cc(-c3ccc(F)cc3)nc(C)n1)N=C[C@@H]1CCCN1C2=O | 0.486 µM (active) | 0.579 µM (active) | 0.313 µM (active) | 0.135 µM (active) | 0.346 µM (active) | 0.225 µM (active) | 1.66 µM (inactive) | 0.029 µM (active) | 0.838 µM (active) | 0.701 | 0.279 µM (active) | 0.443 µM (active) | 0.442 µM (active) | 0.678 µM (active) | 0.502 µM (active) | 0.212 µM (active) | 0.272 µM (active) | 0.771 µM (active) | 0.294 µM (active) | 0.378 µM (active)
COC(=O)c1ccc(/C=C/c2cc(O)ccc2O)cc1 | 3.05 µM (inactive) | 1.11 µM (active) | 2.43 µM (inactive) | 0.242 µM (active) | 4.97 µM (inactive) | 14.9 µM (inactive) | 2.37 µM (inactive) | 20 µM (inactive) | 5.75 µM (inactive) | 3.01 | 0.269 µM (active) | 2.44 µM (inactive) | 30.3 µM (inactive) | 13.1 µM (inactive) | 5.14 µM (inactive) | 0.194 µM (active) | 5.07 µM (inactive) | 2.15 µM (inactive) | 1.6 µM (inactive) | 2.87 µM (inactive)
CCc1n[nH]c(=O)n1N | > 100 µM (inactive) | > 100 µM (inactive) | > 100 µM (inactive) | > 100 µM (inactive) | > 100 µM (inactive) | > 100 µM (inactive) | > 100 µM (inactive) | > 100 µM (inactive) | > 100 µM (inactive) | > 100 | > 100 µM (inactive) | > 100 µM (inactive) | > 100 µM (inactive) | > 100 µM (inactive) | > 100 µM (inactive) | > 100 µM (inactive) | > 100 µM (inactive) | > 100 µM (inactive) | > 100 µM (inactive) | > 100 µM (inactive)
COc1cccc(-c2cc(O)c3cc(Cl)cnc3n2)c1 | 0.102 µM (active) | 2.17 µM (inactive) | 0.0546 µM (active) | 0.0484 µM (active) | 0.113 µM (active) | 0.358 µM (active) | > 16.6 µM (inactive) | 0.164 µM (active) | 0.0469 µM (active) | 0.114 | 0.0211 µM (active) | 0.469 µM (active) | 0.0908 µM (active) | 0.0443 µM (active) | 0.484 µM (active) | 0.0577 µM (active) | 1.33 µM (inactive) | 0.165 µM (active) | 30.5 µM (inactive) | 0.0589 µM (active)
NC(Cc1c[nH]c(I)n1)C(=O)O (stereo not given) | > 100 µM (inactive) | 43.4 µM (inactive) | 29.3 µM (inactive) | 22.1 µM (inactive) | > 100 µM (inactive) | > 100 µM (inactive) | 42.7 µM (inactive) | 34.9 µM (inactive) | 81.5 µM (inactive) | 46.2 | 2.27 µM (inactive) | 25.6 µM (inactive) | > 100 µM (inactive) | > 100 µM (inactive) | 41.4 µM (inactive) | 24.3 µM (inactive) | > 100 µM (inactive) | 84.9 µM (inactive) | 90.6 µM (inactive) | > 100 µM (inactive)
O=C1CSC(c2ccccc2)N1c1nc2cc3sc(N4C(=O)CSC4c4ccccc4)nc3cc2s1 (stereo not given) | > 100 µM (inactive) | 37.6 µM (inactive) | 39.5 µM (inactive) | 4.35 µM (inactive) | 2.85 µM (inactive) | 15.2 µM (inactive) | 22.1 µM (inactive) | > 93.3 µM (inactive) | 24.6 µM (inactive) | 10.2 | > 63.7 µM (inactive) | > 100 µM (inactive) | 19.1 µM (inactive) | > 87.3 µM (inactive) | 12.9 µM (inactive) | 6.87 µM (inactive) | 60 µM (inactive) | > 87.3 µM (inactive) | 61 µM (inactive) | 56.8 µM (inactive)
COc1ccc(/C=C/C2=NN(c3cccc(S(=O)(=O)O)c3)C3(C2)SCC(=O)N3c2nc3ccccc3s2)cc1 (stereo not given) | 76.7 µM (inactive) | 56.1 µM (inactive) | > 100 µM (inactive) | 17.3 µM (inactive) | > 100 µM (inactive) | 66.5 µM (inactive) | 64.7 µM (inactive) | > 100 µM (inactive) | > 100 µM (inactive) | 85.9 | > 100 µM (inactive) | 68.1 µM (inactive) | > 100 µM (inactive) | > 100 µM (inactive) | 46.8 µM (inactive) | 35.2 µM (inactive) | > 100 µM (inactive) | 98.6 µM (inactive) | 16.5 µM (inactive) | 54.3 µM (inactive)
COC(=O)/C=C\C(C#N)(C#N)/N=C/c1cc(Br)cs1 | 1.94 µM (inactive) | 7.08 µM (inactive) | 2.96 µM (inactive) | 0.0914 µM (active) | 1.98 µM (inactive) | 7.31 µM (inactive) | 7.45 µM (inactive) | 16 µM (inactive) | 1.76 µM (inactive) | 2.71 | 0.0465 µM (active) | 2.19 µM (inactive) | 1.94 µM (inactive) | 2.51 µM (inactive) | 1.51 µM (inactive) | 1.5 µM (inactive) | 6.84 µM (inactive) | 6.1 µM (inactive) | 2.12 µM (inactive) | 17.7 µM (inactive)
Clc1c2ncccc2cc2nn[nH]c12 | > 100 µM (inactive) | > 100 µM (inactive) | > 100 µM (inactive) | 17.3 µM (inactive) | > 100 µM (inactive) | > 100 µM (inactive) | > 100 µM (inactive) | > 100 µM (inactive) | > 100 µM (inactive) | > 100 | 14.5 µM (inactive) | 54 µM (inactive) | > 100 µM (inactive) | > 100 µM (inactive) | > 100 µM (inactive) | 33 µM (inactive) | 74.5 µM (inactive) | > 100 µM (inactive) | > 100 µM (inactive) | > 100 µM (inactive)
COc1ccc2c(c1)/C(=C\c1c(Cl)nc3n1CCS3)C(=O)N2 | 7.83 µM (inactive) | 6.76 µM (inactive) | 7.48 µM (inactive) | 6.31 µM (inactive) | 3.14 µM (inactive) | 11.8 µM (inactive) | 18.3 µM (inactive) | 2.74 µM (inactive) | 3.73 µM (inactive) | 3.84 | 3.58 µM (inactive) | 46.5 µM (inactive) | 3.25 µM (inactive) | 7.5 µM (inactive) | 4.42 µM (inactive) | 3.73 µM (inactive) | 13.5 µM (inactive) | 13.8 µM (inactive) | 5.16 µM (inactive) | 4 µM (inactive)
